Patent publication US12370165B2, “Hunger suppression” (TDeltaS Limited, priority 2017, dated 2025)

Columns and labels:
[1] = system: appetite; conditions: rats; cited from earlier work
[2] = General findings on esters: circulating (R)-3-hydroxybutyrate, gut uptake; format: in vivo
[3] = system: plasma ghrelin; assay: General finding on esters: plasma ghrelin levels; conditions: in vivo
[4] = system: insulin; assay: Plasma insulin after study drink (ELISA); format: in vivo, human
Procedure: (§1) A randomised, single-blinded, cross-over study examined the effects of isocaloric ketone ester (KE) and dextrose drinks hunger in healthy, normal-weight participants (n=15) (FIG. 1A). An external Research Ethics Committee (14/LO/0288) approved the study, which was conducted at the University of Oxford in accordance with the Declaration of Helsinki. Participants were healthy, aged 21-42 and with no history of major illness (Anthropometric characteristics in Table 1). Participants provided written informed consent prior to inclusion. Drink order was randomised prior to commencement. Participants refrained from alcohol and caffeine for 24 h prior to each visit and consumed an identical evening meal, at the same time before each visit. Testing started at 0800 h following an overnight (>8 h) fast, with a minimum of 72 h between visits. Venous blood samples (2 ml) were obtained using a 22G catheter inserted into an antecubital vein. […] Blood pHB was measured using a handheld monitor and reagent strips (Precision Xtra, Abbott Diabetes Care, UK). Blood samples were stored on ice, centrifuged and duplicate plasma aliquots stored at −80° C. and analysed within 6 weeks. Plasma glucose was assayed using a commercial analyzer (ABX Pentra, France), whereas insulin, total ghrelin, GLP-1 and PYY were measured using commercially available ELISA assays (Mercodia, Sweden and Merck Millipore, Germany).

[5] = system: GLP-1; assay: Plasma GLP-1 after study drink (ELISA); format: in vivo, human; conditions: after 30 min
Procedure: as §1

[6] = system: hunger; assay: Visual-analogue-scale (VAS) for hunger, desire to eat and fullness after study drink; format: in vivo, human
Procedure: A randomised, single-blinded, cross-over study examined the effects of isocaloric ketone ester (KE) and dextrose drinks hunger in healthy, normal-weight participants (n=15) (FIG. 1A). An external Research Ethics Committee (14/LO/0288) approved the study, which was conducted at the University of Oxford in accordance with the Declaration of Helsinki. Participants were healthy, aged 21-42 and with no history of major illness (Anthropometric characteristics in Table 1). Participants provided written informed consent prior to inclusion. Drink order was randomised prior to commencement. Participants refrained from alcohol and caffeine for 24 h prior to each visit and consumed an identical evening meal, at the same time before each visit. Testing started at 0800 h following an overnight (>8 h) fast, with a minimum of 72 h between visits. Venous blood samples (2 ml) were obtained using a 22G catheter inserted into an antecubital vein. Fasting blood samples were collected prior to all interventions and then at regular intervals for 4 h following the study drink. At identical time points, participants completed a validated three-measure visual-analogue-scale (VAS) to assess ‘hunger,’ ‘desire to eat and’ fullness' (Stubbs et al., “The use of visual analogue scales to assess motivation to eat in human subjects: a review of their reliability and validity with an evaluation of new hand-held computerized systems for temporal tracking of hunger ratings”, Br J Nutr, 2000, 84(4):405-15). Each drink contained 1.9 kCal/kg of pHB (as ketone ester) or dextrose. Drinks were diluted to 500 ml with a commercially available citrus-flavoured drink containing 65 kCal ([…] of carbohydrate) (Glaceau, UK). The dextrose drink was taste-matched using a bitterness additive (Symrise, Holzminden, Germany). Prism6™ software was used for statistical analysis. VAS scores were measured as a distance (mm), and normalised by taking the baseline distance for each visit as ‘0’. Values are means±SEM with significance at p<0.05. […] Correlations were calculated using a two-tailed Pearson's test with a 95% confidence interval.

[7] = system: plasma glucose; assay: Plasma glucose after study drink (commercial analyzer); format: in vivo, human
Procedure: as §1

[8] = system: total ghrelin; assay: Plasma total ghrelin after study drink (ELISA); format: in vivo, human
Procedure: A randomised, single-blinded, cross-over study examined the effects of isocaloric ketone ester (KE) and dextrose drinks hunger in healthy, normal-weight participants (n=15) (FIG. 1A). An external Research Ethics Committee (14/LO/0288) approved the study, which was conducted at the University of Oxford in accordance with the Declaration of Helsinki. Participants were healthy, aged 21-42 and with no history of major illness (Anthropometric characteristics in Table 1). Participants provided written informed consent prior to inclusion. Drink order was randomised prior to commencement. Participants refrained from alcohol and caffeine for 24 h prior to each visit and consumed an identical evening meal, at the same time before each visit. Testing started at 0800 h following an overnight (>8 h) fast, with a minimum of 72 h between visits. Venous blood samples (2 ml) were obtained using a 22G catheter inserted into an antecubital vein. Fasting blood samples were collected prior to all interventions and then at regular intervals for 4 h following the study drink. At identical time points, participants completed a validated three-measure visual-analogue-scale (VAS) to assess ‘hunger,’ ‘desire to eat and’ fullness' (Stubbs et al., “The use of visual analogue scales to assess motivation to eat in human subjects: a review of their reliability and validity with an evaluation of new hand-held computerized systems for temporal tracking of hunger ratings”, Br J Nutr, 2000, 84(4):405-15). Each drink contained 1.9 kCal/kg of pHB (as ketone ester) or dextrose. Drinks were diluted to 500 ml with a commercially available citrus-flavoured drink containing 65 kCal (5 g of carbohydrate) (Glaceau, UK). The dextrose drink was taste-matched using a bitterness additive (Symrise, Holzminden, Germany). Blood pHB was measured using a handheld monitor and reagent strips (Precision Xtra, Abbott Diabetes Care, UK). Blood samples were stored on ice, centrifuged and duplicate plasma aliquots stored at −80° C. and analysed within 6 weeks. Plasma glucose was assayed using a commercial analyzer (ABX Pentra, France), whereas insulin, total ghrelin, GLP-1 and PYY were measured using commercially available ELISA assays (Mercodia, Sweden and Merck Millipore, Germany).

[9] = system: PYY; assay: Plasma PYY after study drink (ELISA); format: in vivo, human; conditions: after 30 min
Procedure: as §1

Which appetite [1] does the source give for `CC(O)CCOC(=O)CC(C)O` (centres unmarked) [3-hydroxybutyl 3-hydroxybutyrate] here?
The appetite was “suppress appetite”.

Which results are given for `C[C@@H](O)CCOC(=O)C[C@@H](C)O` [(R)-3-hydroxybutyrate (R)-1,3-butanediol monoester]?
circulating levels of (R)-3-hydroxybutyrate in the blood ([2]; in vivo): high circulating levels; uptake in the gut ([2]; in vivo): surprisingly high level of uptake; plasma ghrelin levels [3]: reduce plasma ghrelin levels

For `C[C@@H](O)CCOC(=O)C[C@@H](C)O` [KE], which Plasma insulin levels ([4]; 30 min after drink, mean±SEM) is on record?
Its Plasma insulin levels is 13±2 mU/L.

What about the “plasma insulin, difference between KE and dextrose drinks” value ([4]; after 90 min) of the same compound?
The value was “no significant differences”.

And the “plasma GLP-1 levels” value [5]?
Its value is 5 pg/mL.

And the “Perceived 'Fullness'” value ([6]; KE vs dextrose drinks)?
Its value is “the same”.

What about the “'desire to eat' lowered compared to dextrose drinks” value ([6]; for 1.5 to 4 h after drink) of the same compound?
The value was −50%.

What about the “perception of 'hunger' lowered compared to dextrose drinks” value ([6]; for 1.5 to 4 h after drink) of the same compound?
The value was −50%.

What about the Plasma glucose levels ([7]; 30 min after drink, mean±SEM) of the same compound?
The Plasma glucose levels was 5.1 ± 0.2 mM.

And the “plasma glucose, difference between KE and dextrose drinks” value ([7]; after 90 min)?
The value was “no significant differences”.

What about the plasma ghrelin ([8]; 1 h following drink) of the same compound?
The plasma ghrelin was 320 pg/mL.

What about the “Total ghrelin AUC lower with KE vs. dextrose” value ([8]; 4 h after drink) of the same compound?
Its value is 17%.

What about the “Total ghrelin AUC” value ([8]; 4 h after drink, mean±SEM) of the same compound?
The value was 86 ± 6 ng·min/mL.

And the “plasma ghrelin lower than after dextrose” value ([8]; between 2-4 h post-drink)?
The value was > 100 pg/mL.

What about the “plasma PYY levels” value [9] of the same compound?
The value was 57 pg/mL.

What does the source list for “(R)-3-hydroxybutyrate-glycerol partial ester”?
uptake in the gut ([2]; in vivo): surprisingly high level of uptake; circulating levels of (R)-3-hydroxybutyrate in the blood ([2]; upon consumption of a drink): high circulating levels; plasma ghrelin levels [3]: reduce plasma ghrelin levels
